According to patent US20130095059A1, “INHALED NO DONOR KMUPS DERIVATIVE PREVENTING ALLERGIC PULMONARY VASCULAR AND BRONCHIAL INFLAMMATION VIA SUPPRESSED CYTOKINES, INOS AND INFLAMMATORY CELL COUNTS IN ASTHMA MODEL” (priority 2007, published 2013):

System: ROCK
Assay: 5-HT-induced ROCK expression in PASMCs
Type: cell-based, Wistar rats
Details: 10 μM
Description: PASMCs were stimulated with 5-HT or not, as indicated. Cells were treated with KMUP-1 for 24 h before 5-HT stimulation. Whole lysates were collected and resolved by SDS-PAGE as previously described. Primary antibodies were anti-β-actin at: 1:10,000 dilution and anti-RhoA, anti-ROCK, antiphospho-ERK1/2, anti-phospho-AKT, anti-ERK1/2, anti-AKT, anti-5HTT, anti-5-HT2B and anti-eNOS at 1:1000. All blots were incubated with antibodies at 4° C. overnight. After being washed, the appropriate secondary antibodies were added at a dilution of 1:1000 for 1 h at room temperature. After extensive washing, blots were developed with a Super Signal enhanced chemiluminescence kit (Biorad, CA, USA) and visualized on Kodak AR film.
The expression of RhoA/ROCK and phosphorylation of ERK1/2 and AKT kinase in PASMCs were assessed by incubating the PASMCs with 5-HT (10 μM) for 15 min (peak time for RhoA/ROCK, ERK1/2 and AKT phosphorylation) and 5-HTT for 10 min (peak time for 5-HTT) after KMUP-1 (1-100 μM) was added to the culture of PASMCs for 24 h.

C[C@@H](N)[C@H]1CC[C@H](C(=O)Nc2ccncc2)CC1 [Y27632, reference compound]
ROCK expression: inhibited
